US5153353A, “p-Oxybenzoic acid derivatives, process for the preparation thereof and use thereof as drug” (Klinge Pharma GmbH, priority 1990, dated 1992)

Tests used:
[1] = tested on: cholesterol biosynthesis in rat liver homogenate; assay: Determination of the inhibition of cholesterol biosynthesis in rat liver homogenate (14C-acetate incorporation); format: biochemical; details: compared with the blank value
Method: 2) Determination of the inhibition of cholesterol biosynthesis
3 g freshly prepared rat liver was homogenized in 6 ml ice-cooled puffer and centrifuged for 20 minutes at 20000×g. The supernatant was separated off and employed for the following determinations.
To a mixture of 110 μl supernatant and 300 μl incubation solution 10 μl of the methanolic test substance solution were pipetted and incubated at 37° C. for 20 minutes. Thereafter 10 μl of an ^14 C-acetate solution were added by pipette and incubated for a further 30 minutes. Thereafter, to the mixture 500 μl ethanolic KOH solution were added, further incubation carried out for 60 minutes at 75° C. and thereafter the reaction stopped in an ice bath. To enable a yield correction to be made for the subsequent extraction of the ^14 C-cholesterol formed ^3 H-cholesterol (about 10^-3 μCi) was added thereto by pipetting. In addition, 500 μl of an ethanolic solution of unmarked cholesterol was added. The cholesterol of the mixture was extracted twice with 1 ml petroleum ether in each case, the extract dried and taken up with 0.6 ml of an ethanol/acetone mixture (1/1). The dissolved cholesterol was then precipitated by means of 1.4 ml of a digitonin solution (=7 mg). After 15 h at 0° C. the precipitate was centrifuged off, dissolved with 0.5 ml methanol/glacial acetic acid (33/5) and diluted with 2 ml methanol. The radioactivity of the biosynthetically formed cholesterol was determined in 12 ml scintillation liquid (DIMILUME) by means of a scintillation counter.
Buffer: 6.8 g KH2 PO4, 0.6 g MgCl2, 0.37 g EDTA, 1.83 g nicotine amide, 51.35 g saccharose and 0.4 g mercaptoethanol were dissolved in distilled water and diluted to 500 ml (PH =7.2).
Incubation solution: The following were each individually dissolved:
8.6 mg NAD with 1.3 ml buffer
10.2 mg NADP with 1.3 ml buffer
39.6 mg glucose-6-phosphate with 0.65 ml buffer
31.6 mg glucose-6-phosphate-dehydrogenase (1000 U/0.91 ml) with 0.285 ml buffer
These solutions were not mixed until immediately prior to use.
Solution 1: 250 μCi ^14 C-sodium acetate in 1 ml aqua dest.
Solution 2: 512.5 mg sodium acetate in 10 ml aqua dest.
Prior to the test 0.1 ml of the solution 1 and 0.4 ml of the solution 2 were mixed and added to 2 ml aqua dest.
Ethanolic KOH: 10 g KOH were dissolved in 100 ml. ethanol
Method: R. E. Dugan et al. (Archives Biochem. Biophys. 152,21 (1972))

[2] = tested on: normolipemic, male Wister rats; assay: Determination of the hypolipemic effect in rats (serum total cholesterol and triglycerides after oral administration); format: in vivo, rat; details: three administrations over three days
Method: 1) Determination of the hypolipemic effect in rats
The lipid-lowering effect of the test substances was examined in groups each of 10 normolipemic, male Wister rats of 200 to 220 g in weight.
The investigations were performed after a 3-week adaption training of the eating habits of the animals. The controlled feeding was carried out daily from 8 a.m. to 10 a.m. The test substances were administered at 11 a.m.
The test compounds were absorbed in an aqueous solution of 0.25% agar and 0.84% NaCl and administered orally. After three administrations over a period of three days blood was extracted from the animals.
The determination of cholesterol and triglycerides in the serum was made with the aid of the "Cobas-Bio" centrifugal analyzer of Hoffmann-La Roche.
a) Cholesterol determination CHOS-PAP method, enzymatic colour test according to J. Siedel et al. (J. Clin. Chem. Clin. Biochem. 19, 838 (1981))
b) Triglyceride determination Enzymatic cleavage of the triglycerides with the aid of specific lipases with subsequent determination of the liberated glycerol according to T. O. Tiffany et al. (Clin. Chem. 20, 476 (1974))

## CC(C)(C(=O)O)c1ccc(CCC(O)COc2ccc(C(=O)O)cc2)cc1 (stereo not drawn) [Compound 3, 4-{4-[4'-(1-carboxy-1-methylethyl)phenyl]-2-hydroxybutoxy}benzoic acid]
[1]; concentration 1 × 10^-4 Mol/l
  Percentage inhibition of cholesterol biosynthesis in rat liver homogenate: 70%
[1]; concentration 1 × 10^-5 Mol/l
  Percentage inhibition of cholesterol biosynthesis in rat liver homogenate: 29%
[1]; concentration 3 × 10^-5 Mol/l
  Percentage inhibition of cholesterol biosynthesis in rat liver homogenate: 56%
[1]; concentration 3 × 10^-6 Mol/l
  Percentage inhibition of cholesterol biosynthesis in rat liver homogenate: 14%
[2]; 100 mg/kg
  Percentage change of the total cholesterol (TC) level in the rat serum, X ± SD: -17.5 ± 6.2%
  Percentage change of the triglyceride (TG) level in the rat serum, X ± SD: -19.4 ± 9.7%

## CC(C)(CO)c1ccc(CCC(O)COc2ccc(C(=O)O)cc2)cc1 (stereo not drawn) [Compound 2]
[1]; concentration 1 × 10^-4 Mol/l
  Percentage inhibition of cholesterol biosynthesis in rat liver homogenate: 75%
[1]; concentration 1 × 10^-5 Mol/l
  Percentage inhibition of cholesterol biosynthesis in rat liver homogenate: 41%
[1]; concentration 3 × 10^-5 Mol/l
  Percentage inhibition of cholesterol biosynthesis in rat liver homogenate: 65%
[1]; concentration 3 × 10^-6 Mol/l
  Percentage inhibition of cholesterol biosynthesis in rat liver homogenate: 16%
[2]; 100 mg/kg
  Percentage change of the total cholesterol (TC) level in the rat serum, X ± SD: -39.7 ± 12.4%
  Percentage change of the triglyceride (TG) level in the rat serum, X ± SD: -1.6 ± 21.4%

## CC(C)(C)c1ccc(CCC(O)COc2ccc(C(=O)OCC(O)CO)cc2)cc1 (stereo not drawn) [Compound 1, 4-[4-(4'-tert. butylphenyl)-2-hydoxybutoxy]benzoic acid-2,3-dihydroxypropylester]
[1]; concentration 1 × 10^-4 Mol/l
  Percentage inhibition of cholesterol biosynthesis in rat liver homogenate: 68%
[1]; concentration 1 × 10^-5 Mol/l
  Percentage inhibition of cholesterol biosynthesis in rat liver homogenate: 34%
[1]; concentration 3 × 10^-5 Mol/l
  Percentage inhibition of cholesterol biosynthesis in rat liver homogenate: 57%
[1]; concentration 3 × 10^-6 Mol/l
  Percentage inhibition of cholesterol biosynthesis in rat liver homogenate: 0%
[2]; 10 mg/kg
  Percentage change of the total cholesterol (TC) level in the rat serum, X ± SD: +3.8 ± 16.4%
  Percentage change of the triglyceride (TG) level in the rat serum, X ± SD: -26.2 ± 51.1%
[2]; 30 mg/kg
  Percentage change of the total cholesterol (TC) level in the rat serum, X ± SD: -17.1 ± 13.9%
  Percentage change of the triglyceride (TG) level in the rat serum, X ± SD: -28.5 ± 9.0%
[2]; 100 mg/kg
  Percentage change of the total cholesterol (TC) level in the rat serum, X ± SD: -44.1 ± 10.8%
  Percentage change of the triglyceride (TG) level in the rat serum, X ± SD: -34.7 ± 8.6%

## CCOC(=O)C(C)(C)Oc1ccc(Cl)cc1 [CLOFIBRAT, reference compound]
[2]; 100 mg/kg
  Percentage change of the total cholesterol (TC) level in the rat serum, X ± SD: -14.5 ± 12.0%
  Percentage change of the triglyceride (TG) level in the rat serum, X ± SD: -29.2 ± 19.4%
